# Where two headings read alike, the source gives them in different places.
# What was measured:
# [1] = test system: promastigotes of Leishmania mexicana; experiment: Leishmanicidal activity, MTT assay on promastigotes; format: cell-based; conditions: for SI (Selectivity Index) = Citotoxic activity/Leishmanicidal activity: CC50 RAW / IC50 L. mexicana; for IC50: Leishmania mexicana
# Procedure: The leishmanicidal activity of all compounds was evaluated by measuring promastigotes’ mitochondrial activity using MTT colorimetric assay as described previously. In this study, promastigotes from Leishmania mexicana were used. The species were confirmed by amplifying and sequencing cytochrome b gene. Promastigotes were cultured at 25 °C in Schneider’s Drosophila Medium (Gibco, Invitrogen, Carlsbad, CA, USA) supplemented with 10% fetal bovine serum (Eurobio, Les Ulis, France). The medium was renewed every third day. Parasite density was determined by counting the cells using a Neubauer chamber.
# Into each well of a 96-well plate were dispensed 1 × 10^6 parasites/well. A stock solution of the compounds was prepared in DMSO (Sigma Aldrich, Saint Louis, MO, USA), and serial dilutions were added to the parasite suspension, leading to concentrations ranging from 100 to 0.001 µM, keeping the solvent concentration at 0.5%. The final volume was 200 µL for each well and triplicate conditions were carried out. Amphotericin B (Gibco) treatment (1 µM) untreated parasites and DMSO 0.5% were used as positive and negative controls, respectively. After exposure to the compounds for 48 h in culture medium, 20 µL of a solution of 5 mg/mL MTT dissolved in PBS were added to each well. The plate was incubated at 25 °C for 2 h in darkness. The plate was then centrifuged at 4400 rpm for 10 min and the culture medium was then aspirated; 50 µL of DMSO were added into each well to solubilize the formazan crystals and the plate was shaken for 5 min and then it was measured by recording changes in absorbance at 570 nm using a microplate reader Cytation 5 (BioTek) spectrophotometer. A reference wavelength of 630 nm was used as background subtraction. Optical densities were analyzed because the quantity of formazan is directly proportional to the number of viable parasites. Data were analyzed with the statistical software GraphPad Prism 7.02 (GraphPad Software, Corp.).
# [2] = Cytotoxicity, MTT assay on RAW 264.7 macrophages; format: cell-based; conditions: mouse
# Procedure: Raw 264.7 (ATCC® TIB-71™) was maintained in Dulbecco’s Modified Eagle Medium (DMEM) (Gibco, Invitrogen, Gibco, Carlsbad, CA, USA) supplemented with 10% fetal bovine serum (FBS) (Eurobio, Les Ulis, France) and 100 IU/mL penicillin + 100 μg/mL streptomycin (Gibco), at 37 °C in a 5% CO2 atmosphere. The medium was renewed once a week. The viability was determined using MTT (Thiazolyl Blue Tetrazolium Bromide) dye assay as described before for leishmanicidal activity assessment, with some variations. Here, 5 × 10^4 cells/well in a final volume of 100 µL were deposited into a 96-well plate, in triplicate. Saponin (2.4 mg/mL) and untreated cells were used as positive control and negative control, respectively. A stock solution was prepared in DMSO and immediately diluted in media to obtain different serial concentrations (100–0.01 µM). After 48 h exposure to the compounds, 10 µL/well of MTT (5 mg/mL MTT in PBS) were added, and the plate was incubated at 37 °C for 2 h in the dark. Cells were pelleted by centrifugation at 4400 rpm for 10 min and the media was removed. Then, 100 µL/well of DMSO were added and the absorbance at 570 nm was recorded; a reference wavelength of 630 nm was used for background subtraction.
# [3] = test system: CHO-K1; experiment: MTS cell viability assay on immortalized CHO-K1 cells; format: cell-based, hamster; conditions: 48 h, Dox 1 µM, mean ± SEM, NA = no activity, read-out: Percentage (%) of inhibition, CHO-K1
# Procedure: (§1) Five tumor human cancer cell lines—cerebral astrocytoma (D-384), grade IV prostatic adenocarcinoma (PC-3), mammary adenocarcinoma (MCF-7), human colon carcinoma (RKO) and lung carcinoma (A-549)—along with one immortalized hamster cell line (CHO K-1) were used. The cells PC-3, MCF-7 and RKO were cultured in RPMI-1640, D-384 on DMEM and CHO K-1 on HAM F-12 medium supplemented with 10% fetal bovine serum (FBS, Invitrogen, Karlsruhe, Germany), 1% antibiotic-antimitotic solution (100 units/mL penicillin G, 100 µg/mL streptomycin, and 0.25 µg/mL amphotericin B, Gibco, Grand Island, NY, USA), and 1% L-glutamine (2 mM, Gibco). The cells were incubated at 37 °C in a 5% CO2 atmosphere. The viable cells were counted using the trypan blue exclusion method in a hemocytometer.
# (§2) The MTS (5-[3-(carboxymethoxy)phenyl]-3-(4,5-dimethyl-2-thiazolyl)-2-(4-sulfo- phenyl)-2H-tetrazolium inner salt) cell viability assay was used to assess the inhibitory effects of the extracts on the survival of human cancer cell lines. A total of 3–5 × 10^3 cells/well were seeded into 96-well plates and were allowed to adhere for 24 h. […] Each concentration/assay was performed three times. Dimethyl sulfoxide (DMSO) was used as a negative control at a final concentration of 0.1% v/v, and 1 µM Doxorubicin was used as a positive control. The cells were incubated with the treatments for 48 h, after which 20 µL MTS (5 mg/mL, Aqueous One Solution Reagent, Gibco) was added and further incubated for 4 h at 37 °C. The absorbance was measured at 570 nm. The data obtained with cells treated with DMSO were defined to represent 100% viability.
# [4] = test system: MCF-7; experiment: MTS cell viability assay on MCF-7 cells; format: cell-based; conditions: Homo sapiens, Dox 1 µM, mean ± SEM, NA = no activity, read-out: Percentage (%) of inhibition, MCF-7
# Procedure: as §1, §2
# [5] = DPPH radical scavenging assay; conditions: 30 min, 515 nm
# Procedure: The stock solution of the compounds was prepared by dissolving 4 in dimethyl sulfoxide (DMSO) to a concentration of 4 mg/mL. The solution was diluted with methanol until a concentration of 400 µg/mL was obtained and then used immediately.
# The experimental procedure was adapted from the literature. Briefly, 100 µL of a 0.2 mM methanol solution of DPPH (2, 2-diphenyl-1-picrylhydrazyl) radical were added to 100 µL of methanolic solutions of 4 prepared as serial two-fold dilutions from the stock solution in 96-well microfilter plates. Standards and edaravone were also prepared in the same concentrations. The mixture was incubated in dark at room temperature for 30 min and the absorbance was read at 515 nm on a Cytation 5 (BioTek) spectrophotometer.
# The % DPPH scavenging activity was then calculated by using the following formula:(1) % DPPH scavenging = 100 × [(Asample+DPPH−Asample blank)/(ADPPH−Asolvent)]
# The antioxidant activity of the compound was expressed as IC50, which is defined as the concentration that could scavenge 50% of the DPPH free radical. The IC50 values were calculated in GraphPad Prism 7.02 (GraphPad Software, Corp.) The results are given as a mean ± standard deviation (SD) of experiments done in triplicate.
# [6] = test system: PC-3; experiment: MTS cell viability assay on PC-3 cells; format: cell-based; conditions: Homo sapiens, 48 h
# Procedure: as §1, §2
# [7] = test system: RKO; experiment: MTS cell viability assay on RKO cells; format: cell-based; conditions: Homo sapiens, 48 h
# Procedure: as §1, §2
# [8] = test system: HeLa; experiment: MTS cell viability assay on HeLa cells; format: cell-based; conditions: Homo sapiens, 48 h, Dox 1 µM, mean ± SEM, NA = no activity, read-out: Percentage (%) of inhibition, HeLa
# [9] = test system: A-549; experiment: MTS cell viability assay on A-549 cells; format: cell-based; conditions: Homo sapiens, A549; 100 µM, 48 h; Dox 1 µM; mean ± SEM; NA = no activity; read-out: Percentage (%) of inhibition, A-549
# Procedure: as §1, §2
# [10] = MTS cell viability assay on A-549 cells; format: cell-based; conditions: Homo sapiens; 48 h, 15-150 µM, mean ± SEM of triplicates
# Procedure: as §1, §2
# [11] = test system: Leishmania mexicana cells; experiment: Comet assay of Leishmania mexicana cells; format: cell-based; parameters: Comet tail length, mean (vary) / Comet tail length, median (Q50): unit not given here; conditions: L. mexicana, 24 h at MIC; MMS 0.011%; Kruskal-Wallis $means
# Procedure: We quantified DNA breaks by a comet assay to determine if these compounds are genotoxic. Here, L. mexicana cells were exposed for 24 h to MIC concentrations previously determined (see Materials and Methods Section) for each compound. Figure 1 represents the measurements obtained for tail length. All compounds generated DNA breaks expect 4s. […] Samples with DMSO and MMS (0.011%) were included as controls. Some representative pictures are shown at Figure S4. The effect of 4p could not be determined because the cells appear to be very damaged. The data was subjected via a Kruskal–Wallis one-way ANOVA (Statistical Analyses S2). […] These observations support a mechanism of action through the generation of DNA damage.
# For leishmania, a method previously described for yeast was adapted. Briefly, after incubating the cells in presence of the compounds for 24 h, cells were collected and washed with buffer S (1 M sorbitol, 25 mM KH2PO4 in ultrapure water and adjust to pH 6.5 with NaOH). The pellet was resuspended in 400 µL of 1.5% LMA and 40 µL was spread (second layer) onto previously agarose-coated slides (first layer).
# Slides were immersed in cold lysis buffer (30 mM NaOH, 1 M NaCl, 0.05 % (w/v) lauroylsarcosine, 50 mM EDTA, and 10 mM Tris–HCl, pH 10) for 25 min and then in cold electrophoresis alkaline buffer (30 mM NaOH, 10 mM EDTA, and 10 mM Tris–HCl, pH 10). They were then subjected to electrophoresis at 26V and 300 mA. Slides were immersed in neutralization buffer (10 mM Tris–HCl, pH 7.4; prepared in advance and stored at 4 °C) for 10 min at room temperature. The cells were then treated with proteinase K (20 min, 37 °C in humid chamber), followed by a new neutralization step. To dehydrate the slides, they were immersed in EtOH 90% and EtOH absolute for 10 min each. Finally, the slides were stained with Sybr Gold 1X.
# The DNA migration was analyzed using a LEICA microscope with fluorescence (40×) by scoring 100 cells per slide in duplicate. The tail moment parameter was then analyzed by the Comet Score software.
# [12] = read-out: IC50 original values, x.1 (Mean)
# [13] = L. mexicana promastigotes, 48 h, MTT, read-out: Leishmanicidal Activity IC50
# [14] = RAW cells, 48 h, MTT, read-out: Cytotoxicity CC50
# [15] = 100 µM, Dox 1 µM, mean ± SEM, NA = no activity, read-out: Percentage (%) of inhibition, PC-3
# [16] = 100 µM, Dox 1 µM, mean ± SEM, NA = no activity, read-out: Percentage (%) of inhibition, RKO
# [17] = 15-150 µM, mean ± SEM of triplicates
smiles,measurement,setting,value
Cc1nn(-c2ccccc2)c(O)c1C(c1cc(O)ccc1[N+](=O)[O-])c1c(C)nn(-c2ccccc2)c1O,melting point,,205 to 207 °C (dec.)
COC1C=C(C(c2c(C)nn(-c3ccccc3)c2O)c2c(C)nn(-c3ccccc3)c2O)C=CC1(O)OC (stereo not drawn),melting point,,208 to 210 °C
CC1=NN(c2ccccc2)C(=O)C1=Cc1ccc(N(C)C)cc1,melting point,,190.7 to 193.2 °C
CC1=NN(c2ccccc2)C(=O)C12CC21C(=O)N(c2ccccc2)N=C1C (stereo not drawn),melting point,,165.8 to 167.9 °C
"CC1=NN(c2ccccc2)C(=O)[C@@]12C(c1ccc(F)cc1)[C@@]21C(=O)N(c2ccccc2)N=C1C (relative stereo) [4p, (5R*,6R*)-11-(4-Fluorophenyl)-4,10-dimethyl-2,8-diphenyl-2,3,8,9-tetraazadispiro[4.0.4.1]undeca-3,9-diene-1,7-dione]",SI (Selectivity Index) = Citotoxic activity/Leishmanicidal activity,[1],6.1
same,IC50,[1]; [12],575 nM
same,IC50,[1]; [13],570 ± 230 nM
same,CC50 at 48 h,[2]; [14],3500 ± 900 nM
same,CC50 at 48 h,"[2]; Statistical Analyses S1, unrounded mean of CC50 in RAW cells, unit inferred, read-out: CC50 original values, x.1 (Mean)",3550 nM
same,inhibition at 100 µM,[3],1.95 ± 1.42%
same,inhibition at 100 µM,"[4]; MCF7, 48 h",13.6 ± 2.55%
same,IC50,[5],> 300000 nM
same,inhibition at 100 µM,[6]; [15],5.25 ± 2.6%
same,inhibition at 100 µM,[7]; [16],18.6 ± 1.37%
same,inhibition at 100 µM,[8],5.98 ± 2.19%
same,inhibition at 100 µM,[9],9.08 ± 1.14%
same,melting point,,128.9 to 129.9 °C
"C[C@@H]1[C@H](O)[C@@H](C)/C=C/C=C/C=C/C=C/C=C/C=C/C=C/[C@H](O[C@@H]2O[C@H](C)[C@@H](O)[C@H](N)[C@@H]2O)C[C@@H]2O[C@](O)(C[C@@H](O)C[C@@H](O)[C@H](O)CC[C@@H](O)C[C@@H](O)CC(=O)O[C@H]1C)C[C@H](O)[C@H]2C(=O)O [Ampho B, Amphotericin B, reference compound]",SI (Selectivity Index) = Citotoxic activity/Leishmanicidal activity,[1],>31.8
same,IC50,[1]; [12],172 nM
same,IC50,[1]; [13],170 ± 70 nM
same,CC50 at 48 h,[2]; [14],> 5400 nM
"O=C1O[C@H]([C@@H](O)CO)C(O)=C1O [Ascorbic acid, ascorbic acid, reference compound]",IC50,[5],14000 nM
"COc1cccc2c1C(=O)c1c(O)c3c(c(O)c1C2=O)C[C@@](O)(C(=O)CO)C[C@@H]3O[C@H]1C[C@H](N)[C@H](O)[C@H](C)O1 [Dox, Doxorubicin, reference compound]",inhibition at 1 µM,[3]; 100 µM,2.62 ± 1.42%
same,inhibition at 1 µM,"[4]; MCF7, 100 µM, 48 h",46.2 ± 7.77%
same,inhibition at 1 µM,[6]; [15],88 ± 1.65%
same,IC50,[6]; [17],650 ± 80 nM
same,inhibition at 1 µM,[7]; [16],85.6 ± 1.06%
same,IC50,[7]; [17],510 ± 10 nM
same,inhibition at 1 µM,[8]; 100 µM,9.18 ± 9.55%
same,IC50,[10],1230 ± 100 nM
same,inhibition at 1 µM,[9],9.16 ± 2.16%
"COS(C)(=O)=O [MMS, methyl methanesulfonate, reference compound]","Comet tail length, mean (vary)",[11],67050000
same,"Comet tail length, median (Q50)",[11],65000000
